We go through seven molecules from patent publication US20210290629A1 (priority 2016, published 2021).

Read-outs that look alike come from different tables or passages of the source.

Series [1] deals with human monocyte-derived macrophages (hMDM). In words: Cell viability analysis by impedance measurements (xCELLigence). Type of series: cell-based. Particulars: FIG. 5 and 6, range of tested concentrations (30, 100 and 300 nM), 120 h. On the procedure: 3) Cell Viability Analysis by Impedance Measurements
Real-time viability assays (5×10^4 human monocyte derived macrophages/well) were performed with the xCELLigence System (Acea Biosciences Inc.) (Otero-Gonzalez L et al., Environ Sci Technol. 2012; 46(18):10271-8). Impedance measurement was carried out using plates with incorporated sensor array (E-Plate) and the Real-Time Cell Analyzer (RTCA) SP instrument for 120 h. After equilibration of the cells in RPMI 1640 with 10% FCS and 4 mM L-glutamine for 3 h, cells incubated in the absence (medium) or the presence of the ACC2 inhibitor (30, 100 and 300 nM) and staurosporine (1 μg/ml). Data obtained was analyzed using the RTCA Software 2.0 (Acea Biosciences Inc.) see FIGS. 5 and 6.

Series [2] relates to Mycobacterium tuberculosis (Mtb H37Rv) in human monocyte-derived macrophages (hMDM). Type of series: cell-based. Conditions: seven days; for intracellular growth of Mycobacterium tuberculosis in primary human macrophages (CFU): 300 nM.
The subject of series [3] is GFP-expressing Mycobacterium tuberculosis H37Rv. In kind it is cell-based.
Series [4] concerns the target M. tuberculosis AccD5 (Mycobacterium tuberculosis, UniProt P9WQH7). Conditions: literature, Lin T-W. et al., PNAS 2006; cited from earlier work.
The test system of series [5] is M, tuberculosis. Particulars: literature, Singhal A. et al., Science Translational Medicine 2014; cited from earlier work.
The mark [6] stands for this setting: FIG. 8 and 9, indicated concentrations, day 7.

Sequence of M. tuberculosis AccD5 (P9WQH7 whole entry): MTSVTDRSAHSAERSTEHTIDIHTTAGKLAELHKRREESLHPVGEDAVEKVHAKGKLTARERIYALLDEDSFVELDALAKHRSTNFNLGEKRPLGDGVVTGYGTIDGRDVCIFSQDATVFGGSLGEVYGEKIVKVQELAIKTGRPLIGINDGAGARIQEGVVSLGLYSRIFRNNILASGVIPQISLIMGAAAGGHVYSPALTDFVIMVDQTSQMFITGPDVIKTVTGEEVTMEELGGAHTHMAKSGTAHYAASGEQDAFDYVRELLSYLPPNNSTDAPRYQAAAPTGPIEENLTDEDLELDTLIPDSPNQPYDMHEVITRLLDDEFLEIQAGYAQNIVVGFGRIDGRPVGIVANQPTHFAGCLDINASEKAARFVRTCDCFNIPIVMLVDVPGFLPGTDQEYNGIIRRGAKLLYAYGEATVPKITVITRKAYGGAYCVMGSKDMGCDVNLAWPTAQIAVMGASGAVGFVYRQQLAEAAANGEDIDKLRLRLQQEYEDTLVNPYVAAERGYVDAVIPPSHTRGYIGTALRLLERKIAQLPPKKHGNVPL
Sequence of M. tuberculosis AccD5 (P9WPQ3 whole entry, further chain): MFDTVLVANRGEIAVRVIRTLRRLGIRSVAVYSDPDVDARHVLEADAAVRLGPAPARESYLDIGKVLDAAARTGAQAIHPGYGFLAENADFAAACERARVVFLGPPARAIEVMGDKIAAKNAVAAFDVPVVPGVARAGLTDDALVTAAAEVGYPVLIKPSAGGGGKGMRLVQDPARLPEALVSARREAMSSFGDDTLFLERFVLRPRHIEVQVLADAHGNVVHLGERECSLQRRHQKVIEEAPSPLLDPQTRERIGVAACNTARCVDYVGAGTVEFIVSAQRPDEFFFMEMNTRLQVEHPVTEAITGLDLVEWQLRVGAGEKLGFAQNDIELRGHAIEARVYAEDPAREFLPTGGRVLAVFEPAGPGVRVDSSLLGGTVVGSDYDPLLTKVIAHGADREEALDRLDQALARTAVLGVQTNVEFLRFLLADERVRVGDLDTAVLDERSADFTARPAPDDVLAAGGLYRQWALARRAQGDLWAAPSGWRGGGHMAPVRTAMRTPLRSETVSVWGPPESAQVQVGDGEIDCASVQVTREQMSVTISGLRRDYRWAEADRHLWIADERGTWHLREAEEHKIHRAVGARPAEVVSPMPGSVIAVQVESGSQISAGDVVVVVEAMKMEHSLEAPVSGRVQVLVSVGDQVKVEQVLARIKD

Turning to `O=C(c1c2ccccc2cc2ccccc12)N1CCC(N2CCC[C@@H](C(=O)N3CCOCC3)C2)CC1` [CP640.186], in series [1], the “viability of primary human macrophages (cell index, impedance)” value is “does not affect the viability”. In addition, the “intracellular growth of Mycobacterium tuberculosis in primary human macrophages (CFU)” value in series [2] (FIG. 4, 500 nM, one out of two experiments) is “dose-dependently reduces intracellular growth”. In addition, the “growth of Mycobacterium tuberculosis (Mtb) in liquid culture (fluorescence signal intensity at 528 nm)” value in series [3] (setting [6]) was “does not affect growth”.

In the case of `CC(Oc1ccc(Oc2ccc(Cl)cc2Cl)cc1)C(=O)O` (stereo not drawn) [Diclofop], the “inhibition of M. tuberculosis AccD5” value in series [4] is recorded as “cannot be inhibited”.

As to `CC(Oc1ccc(Oc2ncc(C(F)(F)F)cc2Cl)cc1)C(=O)O` (stereo not drawn) [Haloxyfop], in series [4], the “inhibition of M. tuberculosis AccD5” value is given as “cannot be inhibited”.

`COc1cc(C(=O)N2CCC3(CC2)CC(=O)c2cc(-c4cncc(C(=O)O)c4)ccc2O3)cc2c1c(C)cn2C1CC1` [MK-4074]: the “growth of Mycobacterium tuberculosis (Mtb) in liquid culture (fluorescence signal intensity at 528 nm)” value in series [3] (setting [6]) is given as “do not affect growth”.

With `CN(C)C(=N)N=C(N)N` [Metformin], the “intracellular growth of M. tuberculosis” value in series [5] is on record as “reducing the intracellular growth”.

As to `COc1ccccc1[C@H](Cn1c(=O)n(C(C)(C)C(N)=O)c(=O)c2c(C)c(-c3ncco3)sc21)OC1CCOCC1` [ND-646], in series [3] (setting [6]), the “growth of Mycobacterium tuberculosis (Mtb) in liquid culture (fluorescence signal intensity at 528 nm)” value is listed as “do not affect growth”.

On to `CC(=O)NC(C)c1cnc(-c2cnc(Oc3ccc(OC(C)C)cc3)s2)s1` (stereo not drawn) [ab142090, N-(1-(2′-(4-isopropoxyphenoxy)-2,5′-bithiazol5-yl)ethyl)Acetamide], for which the “viability of primary human macrophages (cell index, impedance)” value in series [1] was “does not affect the viability”. Also, the “intracellular growth of Mycobacterium tuberculosis in primary human macrophages (CFU)” value in series [2] (FIG. 2, 100 nM, three donors) is recorded as “dose-dependently reduces intracellular growth”. Further, in series [2] (FIG. 3, 100 nM or 300 nM in combination with rifampicin or isoniazid in suboptimal concentrations, three donors), the “intracellular growth of Mycobacterium tuberculosis in primary human macrophages (CFU), combination with antibiotics” value is on record as “reduces intracellular growth”. Further, in series [3] (FIG. 1, indicated concentrations and time points, two independent experiments), the “growth of Mycobacterium tuberculosis (Mtb) in liquid culture (fluorescence signal intensity at 528 nm)” value is reported as “does not affect the growth”.
